# ChEMBL document CHEMBL2074449, “P-glycoprotein mediates profound resistance to bisantrene” (Oncol Res, 1994)
# Target: ATP-dependent translocase ABCB1 (Homo sapiens, UniProt P08183)
# Experiment: TP_TRANSPORTER: efflux in S1-B1-20 cells
# Format: functional, cell-based
# ATP-dependent translocase ABCB1, sequence (P08183 whole entry): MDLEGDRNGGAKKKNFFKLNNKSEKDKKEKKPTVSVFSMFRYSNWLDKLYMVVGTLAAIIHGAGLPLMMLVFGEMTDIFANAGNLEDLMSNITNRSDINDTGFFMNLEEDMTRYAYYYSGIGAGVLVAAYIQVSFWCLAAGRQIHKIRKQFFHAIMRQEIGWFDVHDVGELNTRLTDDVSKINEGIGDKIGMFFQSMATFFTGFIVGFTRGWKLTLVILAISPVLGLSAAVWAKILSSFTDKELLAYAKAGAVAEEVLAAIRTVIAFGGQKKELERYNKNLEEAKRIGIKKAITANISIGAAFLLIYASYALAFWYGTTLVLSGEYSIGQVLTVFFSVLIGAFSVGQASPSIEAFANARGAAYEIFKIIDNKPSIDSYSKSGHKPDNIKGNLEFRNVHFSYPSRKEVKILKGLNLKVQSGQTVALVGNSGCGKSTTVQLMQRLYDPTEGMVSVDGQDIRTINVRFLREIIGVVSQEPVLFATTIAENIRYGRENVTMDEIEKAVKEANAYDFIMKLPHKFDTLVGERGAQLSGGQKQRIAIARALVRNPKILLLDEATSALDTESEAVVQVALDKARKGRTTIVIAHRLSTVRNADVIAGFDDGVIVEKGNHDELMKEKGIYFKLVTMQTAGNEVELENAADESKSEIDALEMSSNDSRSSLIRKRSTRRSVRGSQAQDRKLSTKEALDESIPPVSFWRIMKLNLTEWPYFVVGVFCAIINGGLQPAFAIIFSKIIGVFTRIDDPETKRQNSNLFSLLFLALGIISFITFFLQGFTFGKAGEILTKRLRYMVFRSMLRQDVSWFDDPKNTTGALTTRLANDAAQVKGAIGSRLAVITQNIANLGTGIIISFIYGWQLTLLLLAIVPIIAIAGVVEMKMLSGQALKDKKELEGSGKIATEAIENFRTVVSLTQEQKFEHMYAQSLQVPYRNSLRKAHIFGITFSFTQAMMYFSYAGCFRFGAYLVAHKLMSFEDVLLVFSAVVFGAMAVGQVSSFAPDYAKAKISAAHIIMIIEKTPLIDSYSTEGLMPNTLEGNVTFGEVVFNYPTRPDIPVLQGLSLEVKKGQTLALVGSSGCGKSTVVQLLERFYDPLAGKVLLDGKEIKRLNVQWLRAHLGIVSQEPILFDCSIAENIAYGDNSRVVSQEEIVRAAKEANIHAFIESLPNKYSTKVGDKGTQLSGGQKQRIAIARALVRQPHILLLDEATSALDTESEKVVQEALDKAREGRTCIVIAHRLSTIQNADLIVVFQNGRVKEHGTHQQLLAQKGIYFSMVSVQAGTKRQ
structure (smiles),measurement,value
C(=N\NC1=NCCN1)/c1c2ccccc2c(/C=N/NC2=NCCN2)c2ccccc12 [BISANTRENE],Activity,substrate [+]
